In patent US6803233B2, “Model for Alzheimer's disease and other neurodegenerative diseases” (priority 2000, dated 2004):
“Also recorded” adds a separate entry of the source.

Legend:
cathepsin D = conditions: literature report; cited from earlier work
tau proteins = experiment: Immunoblot with tau-1 antibody in cultured mouse hippocampal slices; format: cell-based; conditions: six days of ZPAD; for reduction in native tau proteins (50-55 kDa): mean±s.e.m., n=6
Description: (§1) Hippocampal slices were prepared from 10 to 13 day old C57BL/6J (wild-type) and C57BL/6J-ApoE^tm1Unc (ApoE-knockout) mice obtained from the Jackson laboratory, Bar Harbor, Me. Pups were placed under light bromo-chloro-trifluoroethane anesthesia (Sigma, St. Louis, Mo.), and killed by decapitation. After removing the brains, the hippocampus was dissected and subsequently placed on a McIlwain tissue chopper where slices (400 μm thick) were obtained and placed in a solution of cutting medium consisting of Minimum Essential Medium (MEM) with Earle's salts (Gibco, Grand Island, N.Y.), 25 mM HEPES buffer, 10 mM Tris base, 10 mM glucose, and 3 mM MgCl2, pH 7.20. Hippocampal slices were then placed onto the membranes of Millicell-CM culture inserts (Millipore Corp., Bedford, Mass.) in 6 well culture cluster plates and 1 ml of media per well using the methods described by Stoppini et al., J. Neurosci. Methods 37(2):173-82 (1991). The culture medium was described previously by Bednarski et al., J. Neurosci. 17(11):4006-21 (1997). The cultures were incubated in a 37° C. atmosphere containing 5% CO2 and the culture medium was replaced every other day until the initiation of experiments. Each culture cluster plate contained hippocampal slices from either two wild-type or two apoE-knockout mice and individual wells were used for matched control and experimental treatment groups.
(§2) After maintaining the slices with normal culture medium (Bednarski et al., J. Neurosci. 17(11):4006-21 (1997)) in vitro for 12-14 days, slices were incubated with culture medium containing either 20 μM N-CBZ-L-phenylalanyl-L-alanine-diazomethyl-ketone (ZPAD; BACHEM Bioscience, Inc., Torrance, Calif.), an inhibitor of cathepsins B and L (Shaw & Dean, Biochem. J. 186:385-390 (1980); Green & Shaw, J Biol Chem. 256:1923-1928 (1981); Richardson et al., J. Cell Biol. 107: 2097-2107 (1988)) or vehicle (dimethylsulfoxide; DMSO, 0.01%-0.04%) for six days. This treatment media was exchanged every other day.
Control and ZPAD-treated slices were collected in ice-cold 10 mM Tris-HCl harvest buffer consisting of 0.32 M sucrose, 2 mM EDTA, 2 mM EGTA, and 0.1 mM leupeptin, pH 7.4, and centrifuged at 12,000×g for 5 minutes at 4° C. At this point, the pellets were resuspended in lysis buffer (8 mM HEPES, 1 mM EDTA, 0.3 mM EGTA, pH 8.0) and sonicated. The Bradford analysis was performed (Bradford, M, Anal. Biochem 72:248-254 (1976)) and 100-120 μg of protein from each sample was denatured by boiling for 5 min with 2.5% (wt/vol) sodium dodecyl sulfate (SDS) and 3% 2-mercaptoethanol and then subjected to SDS-PAGE on 10% linear gradient gels. See Laemmli et al., J. Mol. Biol. 47:69-85 (1970). […] Relative optical densities and areas of immunobands were quantified using the NIH image analysis system.

caspase 3 = experiment: ELISA assay of caspase 3 activity in cultured hippocampal slices; format: cell-based; conditions: slices cultured 12 days, treated 6 days
Description: Hippocampal slices were cultured for 12 days and incubated with vehicle alone, ZPAD, or chloroquine (CQN; a lysosomal inhibitor) for 6 days (FIG. 28). Cultures were then homogenized, and subjected to an ELISA assay to detect the activity of caspase 3, an apoptotic protease.

tangle-like structures = experiment: AT8 immunocytochemistry of cultured mouse hippocampal slices; format: cell-based; conditions: ZPAD 6 days; for number of AT8 immunopositive profiles: 0.3 mm^2 box at CA1/subicular border, mean±s.e.m., n=5
Description: as §1, §2
For immunocytochemical staining, control and ZPAD-treated slices from both wild-type and apoE-deficient mice were fixed in 4% paraformaldehyde in 0.1 M phosphate buffer (“PB”) at 4° C. overnight, rinsed once in a solution of phosphate buffered saline PBS (PB: phosphate buffer: 0.1M Na2HPO4 and NaH2PO4; PBS: phosphate buffered saline: NaCl 8 g, KCl 0.2 g, Na2HPO4 1.44 g, KH2PO4 0.24 g, dissolved in 1 liter distilled water, pH 7.4) cryoprotected in 20% sucrose in 0.1 M PB, sectioned on a freezing microtome at 25 μm parallel to the broad upper surface of the explant and mounted onto sterile Fisher Superfrost/Plus slides. […]

N-CBZ-L-phenylalanyl-L-alanine-diazomethyl-ketone [ZPAD]
enzymatically active cathepsin D (cathepsin D): increases in enzymatically active cathepsin D
increase in levels of the 15-35 kDa tau fragments (tau proteins; apoE-knockout mouse slices): 277±20%
reduction in native tau proteins (50-55 kDa) (tau proteins; apoE-knockout mouse slices): 35±1.1%
increase in levels of the 15-35 kDa tau fragments (tau proteins; wild-type mouse slices): 240±19%
reduction in native tau proteins (50-55 kDa) (tau proteins; wild-type mouse slices): 22±2.6%
activity of caspase 3 (caspase 3): marked increase
AT8-immunoreactive tangle-like structures (tangle-like structures; apoE-knockout mouse slices): present in large numbers; also recorded: significantly increased; also recorded: more than double; also recorded: Numerous, densely stained neurons; also recorded: Numerous immunopositive neurons; also recorded: numerous, densely labeled cells
number of AT8 immunopositive profiles (tangle-like structures; apoE-knockout slices): 193.8±15
AT8-immunoreactive tangle-like structures (tangle-like structures; wild-type mouse slices): occasionally found; also recorded: far fewer AT8-ir structures
number of AT8 immunopositive profiles (tangle-like structures; wild-type slices): 112.6±13
